Tested on: women
Experiment: Effect of one intake of levonorgestrel within different stages of the menstrual cycle on women pregnancies
Assay type: in vivo
Settings: levonorgestrel 1.5 mg single oral tablet, 1,117 women
Method: 1,117 women (aged 24.9+/−6.5 years) received levonorgestrel (1.5 mg) in form of a single oral tablet during different stages of their menstrual cycle.
The reference (day 0) is the ovulation. The fertile period extends from five days before the ovulation to one day after the ovulation.

## C#C[C@]1(O)CC[C@H]2[C@@H]3CCC4=CC(=O)CC[C@@H]4[C@H]3CC[C@@]21CC [levonorgestrel, D-(−)-ethyl-13β ethynyl-17α hydroxy-17 gonene-4 one-3]
Menstrual cycle stage <−5 day (day 0 = ovulation)
  % pregnancies (failures): 0%
Menstrual cycle stage >+1 day (day 0 = ovulation)
  % pregnancies (failures): 44%
Menstrual cycle stage between −5 and +1 day (fertile period)
  % pregnancies (failures): 56%

— patent publication US20130090318A1, “ONCE-A-MONTH METHOD OF CONTRACEPTION” (LABORATOIRE HRA-PHARMA, priority 2010, published 2013)
